Reference: patent USRE33906E, “Cyclic carboxamide derivatives and their use as analgesics” (Dr.Lo.Zambeletti S.p.A., priority 1985, dated 1992)
Counter-ions that a name gives are not always drawn. Like-named read-outs stand apart in the source and are kept apart here.

How the values were obtained:
[1] = system: mice (reaction time under heat source); test: Mouse Tail-flick test; format: in vivo, mouse (Male Charles River); details: sc, 0.5 h; for responders at 1 mg/kg: 1 mg Kg^-1, Table 3, read-out: Mouse tail flick % Protection
Procedure: Mouse Tail-flick test (Modified from the procedure published by D'Amour et al., J. Pharm. Exptl. Ther. 72, 74/1941)
Male Charles River mice, average weight 26 g, are used. Selection is carried out before beginning of experiments: only mice whose reaction time is less than 8 sec are used. They are randomly distributed into groups of 10 and dosed with compounds under test, with positive and negative controls being included.
Compounds under test are administered subcutaneously in isotonic saline in a volume of 20 ml. Kg^-1. 30 min later mice are placed again under heat source (Socrel apparatus) and reaction time is recorded.
The analgestic activity of the test compound is expressed as the percent number of mice doubling the initial time within a group. [formula]

[2] = molecular target: μ receptor (Cavia porcellus, UniProt A0ACM8Q262); test: Radio receptor binding to μ sites (3H-DAGO)
μ receptor, sequence (A0ACM8Q262 1-400): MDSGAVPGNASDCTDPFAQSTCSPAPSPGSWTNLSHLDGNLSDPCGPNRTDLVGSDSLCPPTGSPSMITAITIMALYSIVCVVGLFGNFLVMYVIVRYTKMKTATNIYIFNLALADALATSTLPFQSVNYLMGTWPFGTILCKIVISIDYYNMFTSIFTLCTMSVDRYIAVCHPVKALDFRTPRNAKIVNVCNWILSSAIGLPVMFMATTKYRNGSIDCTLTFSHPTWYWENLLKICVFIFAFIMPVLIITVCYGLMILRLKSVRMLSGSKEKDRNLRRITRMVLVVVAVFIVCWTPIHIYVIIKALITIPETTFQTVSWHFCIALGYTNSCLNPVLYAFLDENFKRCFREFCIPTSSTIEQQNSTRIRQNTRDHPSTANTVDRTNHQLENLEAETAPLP
Procedure: (§1) RECEPTOR AFFINITY STUDY Tissue preparation
(§2) Radio receptor binding to μ and K sites is performed on fresh guinea pig brain homogenate prepared according to Kosterlitz (1981).
(§3) Whole brain without cerebellum is homogenized in 50 mM, Tris-buffer (pH 7.4 at 0° C.) and centrifuged at 49,000×g×10 min.
(§4) The pellet is then resuspended in the same buffer, incubated at 37° C. for 45 min. and centrifuged again.
(§5) 1.9 ml of the final homogenate (1:100 in Tris-pH 7.4, 0° C.) is used for the binding assay.
Binding to μ sites (Magnan J., 1982)
^3 H [D-Ala^2, MePhe^4, Gly-ol^5 ] Enkephalin (^3 H-DAGO), an enkephalin analogue that binds selectively to μ receptor, is added to the biological substrate and incubated at 25° C. for 40 min., filtered through Whatman GF-C and washed with ice-cold Tris-buffer.
The filters are then dryed, solubilized in Filtercount and the radioactivity monitored. Non specific binding is determined in the presence of 10^-6 M Naloxone.
(§6) For the calculation of the kinetic parameters of the binding of labelled and unlabelled ligands, the equilibrium dissociation constant (KD), the inhibition constant (Ki) and the maximum number of binding sites (B max) are determined from saturation curves and competition experiments (Hill 1910; Scatchard 1949; Cheng and Prusoff 1973; Gillan et al. 1980).
(§7) A concentration of radioligand near KD is used in the binding assays evaluating our compounds.

[3] = system: mice (p-phenylquinone writhing); test: Mouse p-phenylquinone Writhing test; format: in vivo, mouse (Male Charles River); details: sc, Table 2
Procedure: Mouse p-phenylquinone Writhing test (According to Siegmund et al., Proc. Soc. Exptl. Biol. 95, 729/1957)
Male Charles River mice, average weight 26 g, are randomly distributed into group of 10 and are dosed subcutaneously with compounds under test, dissolved in isotonic saline (20 ml.Kg^-1). The experiments are carried out in the presence of positive and negative controls. 20 min after the mince are injected intraperitoneally with p-phenylquinone 0.02%, 10 ml. Kg^-1, maintained at 37° C. in a water bath. The mice are placed in a perspex compartmented observation box and observed for a period of 8 min after injection of p-phenylquinone. The dose-response curve is obtained by basing observation on the all or none response.

[4] = molecular target: T1, K receptor (Kappa opioid receptor) (Cavia porcellus, UniProt P41144); test: Radio receptor binding to K sites (tritiated Ethylketocyclazocine); parameters: species or system guinea pig; details: for remaining activity at 1 µM: 40 min, 10^-6 M, read-out: Opiate receptor binding K, % residual specific binding at 10^-6 M
T1 construct: fresh guinea pig brain homogenate; from tissue; host or cells: guinea pig whole brain without cerebellum, homogenate
T1 sequence (P41144 whole entry): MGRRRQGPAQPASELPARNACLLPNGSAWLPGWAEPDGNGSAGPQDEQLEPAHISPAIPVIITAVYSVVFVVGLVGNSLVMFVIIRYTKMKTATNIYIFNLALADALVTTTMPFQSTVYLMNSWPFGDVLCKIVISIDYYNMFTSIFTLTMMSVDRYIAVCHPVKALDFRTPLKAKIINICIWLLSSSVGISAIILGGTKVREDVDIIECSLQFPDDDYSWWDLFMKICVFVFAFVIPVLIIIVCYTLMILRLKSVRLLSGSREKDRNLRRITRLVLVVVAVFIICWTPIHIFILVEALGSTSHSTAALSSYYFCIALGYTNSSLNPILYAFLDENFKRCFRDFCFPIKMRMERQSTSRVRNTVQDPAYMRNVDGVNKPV
Procedure: as §1, §2, §3, §4, §5
Binding to K sites (Magnan J., 1982)
The binding of tritiated Ethylketocyclazocine to brain homogenate is measured the in presence of 100 nanomolar D-Ala-D-LeuEnkephalin (DADLE) and 100 nanomolar DAGO, added to saturate the δ and μ opioid receptors respectively.
Final homogenate with solutions of the cold ligand and of the labelled ligand is incubated for 40 min. at 25° C., filtered through Whatman GF/C glass filter discs and washed.
The radioactivity bound to the filters is counted by liquid scintillation spectrophotometry.
MR 2266.500 nM is utilized to determine the saturable binding.
as §6, §7

[5] = system: mice (reaction time under heat source); test: Mouse Tail-flick test; format: in vivo, mouse (Male Charles River); details: oral (os), Table 3
[6] = read-out: Receptor binding μ Ki, guinea pig brain homogenate, Table 2
[7] = s.c., 30 min after dosing, Table 2, read-out: Mouse tail flick ED50
[8] = guinea pig brain homogenate, Table 3
[9] = subcutaneous, Table 3, read-out: Mouse tail flick subcutaneous ED50

## CCC(C(=O)N1CCCCC1CN1CCCC1)c1ccccc1 (single isomer, unassigned; isomer b) [Example 16, 1-(2-phenylbutyroil)-2-(1pyrrolidinylmethyl) piperidine hydrochloride. Isomer B]
[1]; subcutaneous
  responders at 1 mg/kg: 40%

## O=C(Cc1ccc(Cl)c(Cl)c1)N1CCCCC1CN1CCCC1 (centres unmarked) [Example 1, 1-(3,4-dichlorophenyl)acetyl-2-(1-pyrrolidinyl)methyl piperidine hydrochloride]
[2]; [6]
  Ki: 1860 nM
[3]
  ED50: 0.2 mg/kg
[1]; [7]
  ED50: 0.11 mg/kg
[4]; guinea pig brain homogenate, tritiated Ethylketocyclazocine with DADLE and DAGO 100 nM each, Table 2, read-out: Receptor binding K Ki
  Ki: 1.83 nM

## CN(C)CC1CCCCN1C(=O)Cc1ccc(Cl)c(Cl)c1 (centres unmarked) [Example 2, 1-(3,4-dichlorophenyl)acetyl-2-dimethylaminomethyl piperidine hydrochloride]
[2]; guinea pig brain homogenate, Table 2, read-out: Receptor binding μ Ki
  Ki: 3730 nM
[3]
  ED50: 0.65 mg/kg
[1]; [7]
  ED50: 0.36 mg/kg
[4]
  Ki: 8.21 nM

## O=C(Cc1ccc(Cl)c(Cl)c1)N1CCCC[C@@H]1CN1CCCC1 [Example 3, (2R)-1-(3,4-dichlorophenylacetyl)-2-(1-pyrrolidinylmethyl)piperidine hydrochloride hydrate]
[2]; [6]
  Ki: 7110 nM
[3]
  ED50: 12.4 mg/kg
[1]; [7]
  ED50: 17.5 mg/kg
[4]
  Ki: 62.1 nM

## O=C(Cc1ccc(Cl)c(Cl)c1)N1CCCC[C@H]1CN1CCCC1 [Example 4, (2S)-1-(3,4-dichlorophenylacetyl)-2-(1-pyrrolidinylmethyl)piperidine hydrochloride hydrate]
[2]; [6]
  Ki: 1560 nM
[3]
  ED50: 0.12 mg/kg
[1]; [7]
  ED50: 0.055 mg/kg
[4]
  Ki: 0.77 nM

## CN(C)C[C@@H]1CCCCN1C(=O)Cc1ccc(Cl)c(Cl)c1 [Example 5, (2S)-1-(3,4-dichlorophenylacetyl)-2-dimethylamino methylpiperidine sesquihydrate]
[2]; [6]
  Ki: > 1 nM
[3]
  ED50: 0.44 mg/kg
[1]; [7]
  ED50: 1.03 mg/kg
[4]
  Ki: 5.01 nM

## O=C(Cc1ccc(Cl)c(Cl)c1)N1CCCCCC1CN1CCCC1 (centres unmarked) [Example 8, 1-(3,4-dichlorophenylacetyl)-2-(1-pyrrolidinylmethyl)-hexahydroazepine hydrochloride]
[1]; [7]
  ED50: 8.76 mg/kg
[4]
  Ki: 6.51 nM

## O=C(Cc1ccccc1)N1CCCCC1CN1CCCC1 (centres unmarked) [Example 10, 1-phenylacetyl-2-(1-pyrrolidinylmethyl)piperidine hydrochloride]
[1]; subcutaneous
  responders at 1 mg/kg: 40%
[4]; [8]
  remaining activity at 1 µM: 100%

## Cc1ccc(CC(=O)N2CCCCC2CN2CCCC2)cc1C (centres unmarked) [Example 11, 1-(3,4-dimethylphenylacetyl)-2-(1-pyrrolidinylmethyl) piperidine hydrochloride]
[1]; subcutaneous
  responders at 1 mg/kg: 60%
[4]; [8]
  remaining activity at 1 µM: 67%

## O=C(Cc1ccc2c(c1)CCC2)N1CCCCC1CN1CCCC1 (centres unmarked) [Example 12, 1-(5-indaneacetyl)-2-(1-pyrrolidinylmethyl)piperidine hydrochloride]
[1]; subcutaneous
  responders at 1 mg/kg: 60%
[4]; [8]
  remaining activity at 1 µM: 62%

## O=C(Cc1ccc2c(c1)CCCC2)N1CCCCC1CN1CCCC1 (centres unmarked) [Example 13, 1-(6-tetralylacetyl)-2-(1-pyrrolidinylmethyl)piperidine hydrochloride]
[2]; read-out: Opiate receptor binding μ Ki, guinea pig brain homogenate, Table 3
  Ki: 500 nM
[1]; subcutaneous
  responders at 1 mg/kg: 80%
[1]; [9]
  ED50: 45 mg/kg
[4]; guinea pig brain homogenate, tritiated Ethylketocyclazocine, Table 3, read-out: Opiate receptor binding K Ki
  Ki: 5.72 nM
[5]
  ED50: 3.91 mg/kg

## O=C(Cc1ccc(Cl)cc1)N1CCCCC1CN1CCCC1 (centres unmarked) [Example 14, 1-(4-chlorophenylacetyl)-2-(1-pyrrolidinylmethyl) piperidine hydrochloride]
[1]; subcutaneous
  responders at 1 mg/kg: 40%
[4]; [8]
  remaining activity at 1 µM: 61%

## COc1ccc(CC(=O)N2CCCCC2CN2CCCC2)cc1OC (centres unmarked) [Example 15, 1-(3-4-dimethoxyphenylacetyl)-2-(1-pyrrolidinylmethyl) piperidine hydrochloride]
[1]; subcutaneous
  responders at 1 mg/kg: 40%
[4]; [8]
  remaining activity at 1 µM: 100%

## O=C(COc1ccc(Cl)cc1)N1CCCCC1CN1CCCC1 (centres unmarked) [Example 17, 1-(4-chlorophenoxyacetyl)-2-(1-pyrrolidinylmethyl) piperidine hydrochloride]
[1]; subcutaneous
  responders at 1 mg/kg: 80%
[1]; [9]
  ED50: 91 mg/kg
[4]
  Ki: 9.54 nM
